The record followed here is patent EP1891948A1, “Treatment of neurological and neuropsychological disorders” (Probiodrug AG, priority 2000, dated 2002).

The test system of the test is WistarF/Han (WF) rats. The test is described as follows: Response to novelty (open field test) after i.c.v. treatment. The class given is in vivo. As to the method:
Animals. Male WistarF/Han (WF) rats (Central Animal Laboratory, Hannover Medical School, Hannover, Germany, see http://www.mh-hannover.de/institut/tierlabor/wf.htm for details), weighing 350-390g, were housed in a sound-proof, temperature controlled (24.0±0.5°C) room under specific pathogen free conditions with a 12/12h dark/light cycle (lights on at 07.00 with illumination level of 80 Lux). Food (Altromin lab chow pellets) and tap water were available ad libitum. Under ketamine/xylasine (100/5 mg/kg, i.p.) anesthesia, the rats were fixed in a Kopf stereotaxic frame and implanted with cannulae (Plastic One, Inc., Roanoke, VA, USA) above the lateral ventricle. All research and animal care procedures were approved by the Lower Saxony district government (Hannover, Germany) and followed principles described in the European Community's Council Directive of 24 November 1986 (86/609/EEC).
Surgery and i.c.v. application. For surgery, rats were anesthetized and prepared with i.c.v. cannulaes (coordinates: A:-0.7mm caudal, L:1.4mm lateral to bregma; and V:3.2mm ventral to the skull surface; tooth bar +3.0 above ear bars) using standard stereotaxic procedures as described in detail elsewhere (von Hörsten et al., 1998a,b,c). […]
Response to novelty (Open field test). […] Spontaneous activity during a single continuous test session of 15min was recorded using a video path analyzer system (E61-21 Video Path Analyser system, Coulboum instruments, PA, U.S.A.). […] Furthermore, the total incidence of fecal boli was counted after each session and the incidence and duration (sec) of grooming behavior was simultaneously recorded from a video monitor by a person blind to the treatment of the animals (von Hörsten et al., 1998c).
Statistical analysis. For statistical analysis, behavioral raw data from every test minute were analyzed by two-way analyses of variance (ANOVA) for repeated measures (factors: treatment and time as a repeated measurement). Data obtained as totals from a session were analyzed by one-way (factor: treatment) ANOVA. […]

With `CCC(C)C(N)C(=O)N1CCSC1` (stereo not drawn) [isoleucyl thiazolidine], under “Fig. 5”, the “dosage already effective on time spent close to the wall” value was found to be 50 pmol. Further, the “time spent close to the wall” value (sum of four consecutive minutes of open field testing, Fig. 5) was “dose-dependent reduction”. The “activity in the open field (distance traveled)” value (wide range of dosages (0.05nmol, 5nmol, 500nmol), 60 min before test, Fig. 4) is recorded as “no effect”.
